One compound from article PMC10584496, “Brazilin from Caesalpinia sappan L. as a Proprotein Convertase Subtilisin/Kexin Type 9 (PCSK9) Inhibitor: Pharmacophore-Based Virtual Screening, In Silico Molecular Docking, and In Vitro Studies” (Advances in Pharmacological and Pharmaceutical Sciences, 2023) can be followed below.

The term IC50 denotes the concentration that gives 50% inhibition. Higher therefore signals a need for much substance.

This test addresses T1, Proprotein convertase subtilisin/kexin type 9 (PCSK9) (Homo sapiens, UniProt Q8NBP7).
T1 construct: His-tagged recombinant PCSK9 wild type
The test is described as follows: CircuLex PCSK9-LDLR in vitro binding assay kit (plate-based, ELISA-type). (In general: In an ELISA, binding on a coated surface is turned into a signal by an enzyme label.)

T1 sequence (Q8NBP7 31-152): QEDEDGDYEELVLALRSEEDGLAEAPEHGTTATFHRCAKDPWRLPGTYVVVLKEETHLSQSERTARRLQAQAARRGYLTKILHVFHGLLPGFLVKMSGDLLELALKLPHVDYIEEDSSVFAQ
T1 sequence (Q8NBP7 153-692): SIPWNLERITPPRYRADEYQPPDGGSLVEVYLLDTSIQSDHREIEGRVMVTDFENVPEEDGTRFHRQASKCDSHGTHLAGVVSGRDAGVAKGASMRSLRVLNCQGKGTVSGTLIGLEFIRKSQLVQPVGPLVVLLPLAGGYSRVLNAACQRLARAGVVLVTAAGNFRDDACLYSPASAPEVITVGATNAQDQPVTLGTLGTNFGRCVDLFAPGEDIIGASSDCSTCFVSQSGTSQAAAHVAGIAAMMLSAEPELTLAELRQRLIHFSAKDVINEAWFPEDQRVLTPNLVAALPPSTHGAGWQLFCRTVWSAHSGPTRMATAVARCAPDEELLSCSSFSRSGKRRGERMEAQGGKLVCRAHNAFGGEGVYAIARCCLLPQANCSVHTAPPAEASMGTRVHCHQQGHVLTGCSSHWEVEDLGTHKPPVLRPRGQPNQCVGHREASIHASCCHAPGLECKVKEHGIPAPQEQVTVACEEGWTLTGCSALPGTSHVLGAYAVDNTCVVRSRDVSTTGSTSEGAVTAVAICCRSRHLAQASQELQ
T1 sequence (P01130 22-860 partner): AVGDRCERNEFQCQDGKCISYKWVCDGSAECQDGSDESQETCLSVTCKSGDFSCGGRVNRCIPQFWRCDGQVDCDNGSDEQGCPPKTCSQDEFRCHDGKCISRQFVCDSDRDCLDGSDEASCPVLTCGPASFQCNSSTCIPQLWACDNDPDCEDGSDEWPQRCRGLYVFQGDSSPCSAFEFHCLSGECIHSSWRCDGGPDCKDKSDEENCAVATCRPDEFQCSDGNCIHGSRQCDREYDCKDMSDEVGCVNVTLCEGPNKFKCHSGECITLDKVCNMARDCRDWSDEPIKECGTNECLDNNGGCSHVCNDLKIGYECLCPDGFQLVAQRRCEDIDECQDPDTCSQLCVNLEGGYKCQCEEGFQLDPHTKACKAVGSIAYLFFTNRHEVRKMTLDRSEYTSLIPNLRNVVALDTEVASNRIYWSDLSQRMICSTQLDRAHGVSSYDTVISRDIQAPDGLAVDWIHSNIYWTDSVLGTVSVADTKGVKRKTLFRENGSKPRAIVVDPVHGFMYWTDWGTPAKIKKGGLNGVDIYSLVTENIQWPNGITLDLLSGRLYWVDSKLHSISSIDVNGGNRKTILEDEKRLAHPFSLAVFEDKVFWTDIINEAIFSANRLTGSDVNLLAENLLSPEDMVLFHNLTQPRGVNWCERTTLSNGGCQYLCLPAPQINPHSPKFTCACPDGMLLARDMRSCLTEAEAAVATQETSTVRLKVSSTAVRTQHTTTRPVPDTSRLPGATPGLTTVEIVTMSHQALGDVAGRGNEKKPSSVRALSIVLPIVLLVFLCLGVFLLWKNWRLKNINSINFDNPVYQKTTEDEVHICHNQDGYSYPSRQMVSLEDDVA

`Oc1ccc2c(c1)OC[C@]1(O)Cc3cc(O)c(O)cc3[C@H]21` [brazilin] yielded an IC50 of 2.19 µM.
